One molecule from patent US9636021B2, “Flavonoid compounds of low toxicity for biological imaging applications” (The University of Akron, priority 2014, dated 2017) can be followed below.

Series [1] is described as follows: absorbance and fluorescence spectra in DMSO. It is filed as physicochemical. The text has this:
The absorbance and fluorescence spectra of compounds 1-6 in dimethyl sulfoxide (DMSO) were investigated and the results are in Table 1.

Series [2] addresses bovine serum albumin (BSA) (Bos taurus, UniProt P02769). In words: fluorescence turn-on with BSA in PBS buffer. It is filed as binding. As to the method:
In the aqueous buffer (0.5% DMSO, 10 mM of PBS, pH=7.4), the BSA binding-induced fluorescence turn-on was so large that it could be easily seen by naked eye. […] The intramolecular charge transfer along the D-A conjugated backbone plays a very important role in the environment-sensitivity of the flavone. All the evidence consistently pointed to the flavone dye entering the hydrophobic site of BSA.
Generally, the detection limit can be defined as the analyte concentration at which a 10% increase in fluorescence emission can be measured.
Therefore, the detection limits of compounds 1-6 were 2.6, 0.14, 0.59, 0.09, 14, and 3.4 μg/mL, respectively. For Off/On type fluorescent sensor, the Signal-to-Noise (S/N) ratio above 3:1 is considered reliable for visual evaluation. The visual recognizable detection limits of compounds 1-6 were calculated as 78, 4.2, 17.7, 2.7, 420, and 102 μg/mL, respectively. The reference range for serum albumin concentration in human blood plasma is approximately 35-50 mg/mL. Even in fish, the concentration of serum albumins can reach 0.5-5 mg/mL. The detection limits of the compounds were much lower than serum albumin concentration, indicating the capability for actual blood sample testing.

For series [3], the system named is serum albumin in monkey serum. In words: fluorescence response to monkey serum. The following applies: 10 μM in 1 mL PBS. Format: binding. As to the method:
FIG. 18 provides a chart of fluorescence spectra changes and of compound 4 (10 μM, in 1 mL of PBS buffer solution) upon addition of different volume of monkey serum;
FIG. 19 provides a chart of fluorescent intensities (λ=505 nm) of compound 4 (10 μM, in 1 mL of PBS buffer solution) upon addition of different volume of monkey serum;
Serum albumin is known as the most abundant protein in blood serum. The probe's fluorescence response to serum albumin in real blood samples would be considered as an ideal sensing tool. In this example, 10 μM of compound 4 was dissolved in 1 mL of PBS buffer as a test solution. […] The detection limit (S/N>3) for monkey serum was calculated as 0.03 μL.

For series [4], the target named is BSA, human serum albumin (HSA) (Bos taurus, UniProt P02769). In words: wash-free staining of proteins in SDS-PAGE gel. It is filed as binding. To be noted: 2 hours staining, 10 mM dye, 0.3% SDS, no washing. How it is done: (§1) FIG. 20 provides fluorescence images of several proteins in electrophoresis gel stained by compound 4 before and after washing 1. BSA at 0.1 μg; 2. BSA at 1 μg; 3. BSA at 10 μg; 4. BSA at 100 μg; 5. HSA at 10 μg; 6. Fibrinogen at 10 μg; 7. Lysozyme at 10 μg; 8. Trypsin at 10 μg;
(§2) Various proteins were run on the 1-D SDS-PAGE minigels with running buffer (25 mM Tris, 192 mM glycine, 0.1% SDS pH 8.3) under 100 volts for 1.5 hrs. The minigels were then placed in the dye solution (10 mM of compound 4, 0.3% SDS, and AcOH/DMSO/H2O=5:10:85). […] Therefore, the discovered protein-staining reagent had the following advantages: (1) low interference of SDS to fluorescence, thereby eliminating the pretreatment; (2) very weak fluorescent in water and gels to eliminate the need for the washing process; (3) strong interaction with the proteins (serum albumin) to reduce the staining time; (4) a high signal-to-noise (S/N) ratio for the high contrast ratio of images.

Series [5] has as its system BSA, human serum albumin (HSA). In words: wash-free staining of proteins in SDS-PAGE gel. It is filed as binding. The following applies: BSA, HSA vs fibrinogen, lysozyme, trypsin, 10 μg. As to the method: as §1, §2
The mark [6] stands for this setting: with BSA 1.0 mg/ml, 10 μM dye, 10 mM PBS, 0.5% DMSO, pH 7.4.
The mark [7] stands for this setting: without BSA, 10 μM dye, 10 mM PBS, 0.5% DMSO, pH 7.4.

bovine serum albumin (BSA), sequence (P02769 25-607): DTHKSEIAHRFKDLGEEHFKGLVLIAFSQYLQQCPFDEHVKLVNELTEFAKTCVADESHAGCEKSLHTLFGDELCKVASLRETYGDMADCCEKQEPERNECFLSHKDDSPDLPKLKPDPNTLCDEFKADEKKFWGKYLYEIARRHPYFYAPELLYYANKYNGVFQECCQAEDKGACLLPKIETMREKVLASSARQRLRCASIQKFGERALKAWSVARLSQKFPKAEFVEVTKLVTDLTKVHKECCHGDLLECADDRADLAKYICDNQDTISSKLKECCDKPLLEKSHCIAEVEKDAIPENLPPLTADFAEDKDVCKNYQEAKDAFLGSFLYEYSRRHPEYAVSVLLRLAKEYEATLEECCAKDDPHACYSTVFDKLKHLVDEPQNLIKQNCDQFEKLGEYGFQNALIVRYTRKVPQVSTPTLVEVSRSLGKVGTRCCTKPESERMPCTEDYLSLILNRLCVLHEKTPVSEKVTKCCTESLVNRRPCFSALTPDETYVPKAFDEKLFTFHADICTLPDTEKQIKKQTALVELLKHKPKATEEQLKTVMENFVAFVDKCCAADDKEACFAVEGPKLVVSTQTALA
BSA, human serum albumin (HSA) (Bos taurus, UniProt P02769), sequence (P02769 25-607): as above

In series [1], `COc1c(-c2ccc(N(C)C)cc2)oc2ccc(C)cc2c1=O` [compound 4, 2-(4-(dimethylamino)phenyl)-3-methoxy-6-methyl-4H-chromen-4-one] gave a Φ of 37.6%, a λabs of 390 nm and a λem of 504 nm. In series [2] (BSA), the “detection limit (10% increase in fluorescence emission)” value is 0.09 µg/mL and the “visual recognizable detection limit (S/N above 3:1)” value came to 2.7 µg/mL. Besides, the “F(+)/F(−) fluorescence intensity with BSA / without BSA” value in series [2] (BSA 1.0 mg/ml, 10 μM dye, 10 mM PBS, 0.5% DMSO, pH 7.4) is on record as 1100. In addition, the “fluorescence in the absence of BSA” value in series [2] (aqueous buffer, 0.5% DMSO, 10 mM PBS, pH 7.4) is “almost no fluorescence”. Further, in series [2] (setting [6]), the “λabs(+)” value stood at 398 nm and the “λem(+)” value is listed as 484 nm. Besides, in series [2] (setting [7]), the “λabs(−)” value worked out at 398 nm and the “λem(−)” value is listed as 490 nm. Moreover, the “detection limit (S/N>3) for monkey serum” value in series [3] is 0.03 µL. Also, the “fluorescence intensity enhancement at 505 nm” value in series [3] (25 μL of serum sample) is 135 fold. The “amount of BSA clearly observed in gel under a UV lamp” value in series [4] is about 1 µg. Further, in series [5], the “selectivity of protein staining in gel” value is “serum albumin proteins were selectively stained”.
